{"source": "the supplement of paper PMC10307832", "assay_in_all_cases": "relative viability (nuclei count vs DMSO), 5 days (fraction); higher = more cells survive", "key": {"[1]": {"compound": "C[C@@]1(C(=O)Nc2ccc(F)nc2)CCCN1c1nc(Nc2cc(C3CC3)n[nH]2)c2cccn2n1 + Cc1nc(NC(=O)N2CCC[C@H]2C(N)=O)sc1-c1ccnc(C(C)(C)C(F)(F)F)c1 [Alpelisib] (partner 2 µM)", "method_in_brief": "(§1)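 Relative viability divides the nuclei count in treated wells by that in vehicle wells. Lung cancer cell lines were seeded in 1536-well plates, dosed by pin tool the next day, and fixed and stained after 5 days in one step with final 0.05% Triton X-100, 1% formaldehyde and 1 ug/ml Hoechst. Dosing was a single drug or a fixed anchor-drug dose plus five library-drug doses (not always all listed) in √10 steps, and values are medians of duplicate plates imaged at 4×.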"}, "[2]": {"compound": "CC1(C)CNc2cc(NC(=O)c3cccnc3NCc3ccncc3)ccc21 [Motesanib] + C[C@]1(O)C[C@@H](c2nc(-c3ccc4ccc(-c5ccccc5)nc4c3)c3c(N)nccn32)C1 [Linsitinib] (partner 1 µM)", "method_in_brief": "as §1"}, "[3]": {"compound": "C[C@@]1(C(=O)Nc2ccc(F)nc2)CCCN1c1nc(Nc2cc(C3CC3)n[nH]2)c2cccn2n1 + COc1cc2c(Oc3ccc(NC(=O)C4(C(=O)Nc5ccc(F)cc5)CC4)cc3F)ccnc2cc1OCCCN1CCOCC1 [Foretinib] (partner 0.25 µM)", "method_in_brief": "as §1"}, "[4]": {"compound": "CC1(C)CNc2cc(NC(=O)c3cccnc3NCc3ccncc3)ccc21 [Motesanib] + Cc1cc(Nc2cc(N3CCN(C)CC3)nc(Sc3ccc(NC(=O)C4CC4)cc3)n2)n[nH]1 [Tozasertib] (partner 0.1 µM)", "method_in_brief": "as §1"}}}
{"cell line": "UMC-11", "values": [{"measurement": "relative viability", "setting": "[1]; first compound 0.04 µM", "result": 0.955}, {"measurement": "relative viability", "setting": "[1]; first compound 0.1265 µM", "result": 1.1}, {"measurement": "relative viability", "setting": "[1]; first compound 0.4 µM", "result": 1.01}, {"measurement": "relative viability", "setting": "[1]; first compound 1.265 µM", "result": 1.1}, {"measurement": "relative viability", "setting": "[2]; first compound 0.01 µM", "result": 0.984}, {"measurement": "relative viability", "setting": "[2]; first compound 0.03162 µM", "result": 0.985}, {"measurement": "relative viability", "setting": "[2]; first compound 0.1 µM", "result": 1.04}, {"measurement": "relative viability", "setting": "[2]; first compound 0.3162 µM", "result": 1}, {"measurement": "relative viability", "setting": "[2]; first compound 1 µM", "result": 1.13}, {"measurement": "relative viability", "setting": "[3]; first compound 0.04 µM", "result": 1.09}, {"measurement": "relative viability", "setting": "[3]; first compound 0.1265 µM", "result": 1.12}, {"measurement": "relative viability", "setting": "[3]; first compound 0.4 µM", "result": 0.901}, {"measurement": "relative viability", "setting": "[3]; first compound 1.265 µM", "result": 0.299}, {"measurement": "relative viability", "setting": "[4]; first compound 0.01 µM", "result": 0.205}, {"measurement": "relative viability", "setting": "[4]; first compound 0.03162 µM", "result": 0.213}, {"measurement": "relative viability", "setting": "[4]; first compound 0.1 µM", "result": 0.216}, {"measurement": "relative viability", "setting": "[4]; first compound 0.3162 µM", "result": 0.207}, {"measurement": "relative viability", "setting": "[4]; first compound 1 µM", "result": 0.228}]}
